The structures appear in SMILES notation.

human activated kallikrein enzyme (plasma kallikrein), sequence (P03952 391-638): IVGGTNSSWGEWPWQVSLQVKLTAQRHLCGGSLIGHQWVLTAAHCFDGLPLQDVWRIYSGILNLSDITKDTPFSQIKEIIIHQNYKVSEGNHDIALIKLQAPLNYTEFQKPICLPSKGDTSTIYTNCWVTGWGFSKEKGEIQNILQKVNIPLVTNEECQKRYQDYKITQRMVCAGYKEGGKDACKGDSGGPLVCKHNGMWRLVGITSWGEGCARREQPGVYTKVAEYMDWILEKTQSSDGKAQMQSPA
human activated kallikrein enzyme (plasma kallikrein), sequence (P03952 20-390 partner): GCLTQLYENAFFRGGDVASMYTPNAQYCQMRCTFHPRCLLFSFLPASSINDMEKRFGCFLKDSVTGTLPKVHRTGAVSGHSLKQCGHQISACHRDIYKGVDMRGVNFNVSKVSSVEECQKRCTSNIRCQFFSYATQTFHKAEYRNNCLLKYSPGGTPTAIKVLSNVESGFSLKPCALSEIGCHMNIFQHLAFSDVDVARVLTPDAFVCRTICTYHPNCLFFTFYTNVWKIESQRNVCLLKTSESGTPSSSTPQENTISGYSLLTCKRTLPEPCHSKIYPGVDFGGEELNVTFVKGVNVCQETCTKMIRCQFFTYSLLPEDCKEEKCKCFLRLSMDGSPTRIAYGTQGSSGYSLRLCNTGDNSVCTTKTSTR

This assay addresses human activated kallikrein enzyme (plasma kallikrein) (Homo sapiens (Human), UniProt P03952). Put plainly: Inhibition of human activated plasma kallikrein, fluorogenic peptide substrate assay, 500 pM enzyme format. The class given is biochemical. The following applies: 500 pM activated kallikrein enzyme, 300 uM Pro-Phe-Arg-7-amido-4-methylcoumarin substrate, 30 min preincubation, 10 min at RT; read-out: Primary Dose Response Assay: Average EC50. The essentials:
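Buffer 20 mM Tris pH 7.5, EDTA, NaCl, PEG-400, Triton X-100; 300 uM Pro-Phe-Arg-AMC; enzyme–inhibitor preincubation 30 min RT. Format one: 500 pM kallikrein, 10 min RT reaction; format two: 5 pM kallikrein, 18 h RT reaction. Fluorescence read at 460 nm (380 nm excitation).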
By EC50 is commonly meant the concentration at which the effect is half-maximal. For `COC(=O)c1c(Cn2cc(C(=O)NCc3ncn4ccc(Cl)c(F)c34)nn2)[nH]c2cc(C3CC3)ccc12` [Example I-272, methyl 2-((4-(((7-chloro-8-fluoroimidazo[1,5-a]pyridin-1-yl)methyl)carbamoyl)-1H-1,2,3-triazol-1-yl)methyl)-6-cyclopropyl-1H-indole-3-carboxylate], the 50% effective concentration (EC50) is below 1 nM.
The result for `O=C(NCc1ncn2ccc(Br)cc12)c1cnn(Cc2cn3cc(C4CC4)c(Cl)cc3n2)c1` [Example I-25, N-((7-bromoimidazo[1,5-a]pyridin-1-yl)methyl)-1-((7-chloro-6-cyclopropylimidazo[1,2-a]pyridin-2-yl)methyl)-1H-pyrazole-4-carboxamide] reads 1 to 10 nM; that for `NC(=O)CCc1cc(C2CC2)cn2cc(Cn3cc(C(=O)NCc4ncn5ccc(Cl)cc45)nn3)nc12` [Example I-183, 1-((8-(3-amino-3-oxopropyl)-6-cyclopropylimidazo[1,2-a]pyridin-2-yl)methyl)-N-((7-chloroimidazo[1,5-a]pyridin-1-yl)methyl)-1H-1,2,3-triazole-4-carboxamide], below 1 nM.
Next, `O=C(NCc1ncn2ccc(Cl)c(F)c12)c1cn(Cc2cn3ncccc3n2)cn1` [Example I-291, N-((7-chloro-8-fluoroimidazo[1,5-a]pyridin-1-yl)methyl)-1-(imidazo[1,2-b]pyridazin-2-ylmethyl)-1H-imidazole-4-carboxamide]: 10 to 100 nM.
The result for `COC(=O)C1CN(c2cc(C3CC3)nn3cc(Cn4cc(C(=O)NCc5ncn6ccc(Cl)c(F)c56)nn4)nc23)C1` [Example I-265a, methyl 1-(2-((4-(((7-chloro-8-fluoroimidazo[1,5-a]pyridin-1-yl)methyl)carbamoyl)-1H-1,2,3-triazol-1-yl)methyl)-6-cyclopropylimidazo[1,2-b]pyridazin-8-yl)azetidine-3-carboxylate] reads below 1 nM; that for `Cc1ccc2nc(Cn3cc(C(=O)NCc4ncn5c(N)cc(Cl)cc45)cn3)cn2c1` [Example I-58, N-((5-amino-7-chloroimidazo[1,5-a]pyridin-1-yl)methyl)-1-((6-methylimidazo[1,2-a]pyridin-2-yl)methyl)-1H-pyrazole-4-carboxamide], 1 to 10 nM; that for `O=C(O)Cn1c(Cn2cc(C(=O)NCc3ncn4ccc(Cl)c(F)c34)nn2)cc2cc(C3CC3)ccc21` [Example I-244, 2-(2-((4-(((7-chloro-8-fluoroimidazo[1,5-a]pyridin-1-yl)methyl)carbamoyl)-1H-1,2,3-triazol-1-yl)methyl)-5-cyclopropyl-1H-indol-1-yl)acetic acid], 10 to 100 nM.

The values are drawn from patent publication US10730874B2 (Shire Human Genetic Therapies, Inc., priority 2018, dated 2020).
